Consider two molecules from the NIST ThermoML archive (doi:10.1016/j.jct.2011.02.005).

This data set can be described thus: mn = molality of the nth substance listed, in mol/kg. The settings on record: 298.15 K, 101 kPa, Liquid, Vibrating tube method.

Molecules are shown by their SMILES. Numbers after ± are expanded uncertainties.

Usually mass density stands for the mass of a sample divided by its volume. Regarding `O=C(O)CNCC(=O)O` [N-(carboxymethyl)glycine] + O, the mass density is on record as 1000.08 ± 0.064 kg/m3 (m1 = 0.0499); 1002.85 ± 0.065 kg/m3 (m1 = 0.1004); 1005.55 ± 0.066 kg/m3 (m1 = 0.1501); 1008.22 ± 0.067 kg/m3 (m1 = 0.2); 1010.83 ± 0.068 kg/m3 (m1 = 0.2492); 1013.46 ± 0.069 kg/m3 (m1 = 0.2995). Moreover, the mass density is 1016.13 ± 0.07 kg/m3 (m1 = 0.3512); 1018.57 ± 0.071 kg/m3 (m1 = 0.3991); 1021.04 ± 0.072 kg/m3 (m1 = 0.4485); 1023.68 ± 0.074 kg/m3 (m1 = 0.5013); 1026.15 ± 0.075 kg/m3 (m1 = 0.5509); 1028.49 ± 0.076 kg/m3 (m1 = 0.5987).

Consider `OC[C@@H](O)[C@H](O)[C@@H](O)CO` [xylitol] + O, for which the mass density was 1006.8 ± 0.067 kg/m3 (m1 = 0.1998); 1013.81 ± 0.07 kg/m3 (m1 = 0.35); 1020.47 ± 0.073 kg/m3 (m1 = 0.4985); 1027.38 ± 0.077 kg/m3 (m1 = 0.6496); 1033.72 ± 0.08 kg/m3 (m1 = 0.7999); 1039.84 ± 0.084 kg/m3 (m1 = 0.95).
